Reference: ChEMBL document CHEMBL3758109, “A novel triazole derivative of betulinic acid induces extrinsic and intrinsic apoptosis in human leukemia HL-60 cells” (Eur J Med Chem, 2016)
Activity calls are given as the source filed them. The rule behind the calls is not given here.

Key:
[1] = Cytotoxicity against human MIAPaCa2 cells assessed as cell growth inhibition at 10 uM after 48 hrs by MTT assay; format: functional; conditions: MIA PaCa-2, 48 h, read-out: GI
[2] = Cytotoxicity against human MIAPaCa2 cells assessed as cell growth inhibition after 48 hrs by MTT assay; format: functional, cell-based; conditions: MIA PaCa-2, 48 h
[3] = system: A549; assay: Cytotoxicity against human A549 cells assessed as cell growth inhibition at 10 uM after 48 hrs by MTT assay; format: functional; conditions: A549, 48 h, read-out: GI
[4] = system: A549; assay: Cytotoxicity against human A549 cells assessed as cell growth inhibition after 48 hrs by MTT assay; format: functional, cell-based; conditions: A549, 48 h
[5] = Cytotoxicity against human PC3 cells assessed as cell growth inhibition after 48 hrs by MTT assay; format: functional, cell-based; conditions: PC-3, 48 h
[6] = Cytotoxicity against human PC3 cells assessed as cell growth inhibition at 10 uM after 48 hrs by MTT assay; format: functional; conditions: PC-3, 48 h, read-out: GI
[7] = Cytotoxicity against human HL60 cells assessed as cell growth inhibition at 10 uM after 48 hrs by MTT assay; format: functional; conditions: HL-60, 48 h, read-out: GI
[8] = Cytotoxicity against human HL60 cells assessed as cell growth inhibition after 48 hrs by MTT assay; format: functional, cell-based; conditions: HL-60, 48 h
[9] = system: HL-60; assay: Induction of mitochondrial potential loss in human HL60 cells at 10 uM after 24 hrs by rhodamine-123 staining based flow cytometry (reference value: 3%); format: functional
[10] = system: HL-60; assay: Induction of apoptosis in human HL60 cells assessed as decrease in Bcl-2/Bax ratio after 24 hrs by Western blot; format: functional, cell-based
[11] = system: HL-60; assay: Induction of apoptosis in human HL60 cells assessed as activation of caspase- 7 at 5 to 20 uM after 24 hrs by Western blot; format: functional, cell-based
[12] = system: HL-60; assay: Induction of mitochondrial potential loss in human HL60 cells at 20 uM after 24 hrs by rhodamine-123 staining based flow cytometry (reference value: 3%); format: functional
[13] = system: HL-60; assay: Induction of apoptosis in human HL60 cells assessed as cleavage of PARP-1 at 5 to 20 uM after 24 hrs by Western blot; format: functional, cell-based
[14] = system: HL-60; assay: Induction of apoptosis in human HL60 cells at 20 uM after 24 hrs by propidium iodide staining based flow cytometry (reference value: 3%); format: functional
[15] = system: HL-60; assay: Induction of apoptosis in human HL60 cells assessed as activation of caspase- 6 at 5 to 20 uM after 24 hrs by Western blot; format: functional, cell-based
[16] = system: HL-60; assay: Induction of apoptosis in human HL60 cells assessed as activation of caspase- 3 at 5 to 20 uM after 24 hrs by Western blot; format: functional, cell-based
[17] = Cell cycle arrest in human HL60 cells assessed as accumulation at S phase at 5 uM after 24 hrs by propidium iodide staining based flow cytometry (reference value: 48%); format: functional; conditions: HL-60
[18] = system: HL-60; assay: Induction of apoptosis in human HL60 cells assessed as activation of procaspase- 8 at 5 to 20 uM after 24 hrs by Western blot; format: functional, cell-based
[19] = Cell cycle arrest in human HL60 cells assessed as accumulation at G1 phase at 5 uM after 24 hrs by propidium iodide staining based flow cytometry (reference value: 46%); format: functional; conditions: HL-60
[20] = Cell cycle arrest in human HL60 cells assessed as accumulation at G1 phase at 20 uM after 24 hrs by propidium iodide staining based flow cytometry (reference value: 46%); format: functional; conditions: HL-60
[21] = system: HL-60; assay: Induction of mitochondrial potential loss in human HL60 cells at 5 uM after 24 hrs by rhodamine-123 staining based flow cytometry (reference value: 3%); format: functional
[22] = system: HL-60; assay: Induction of apoptosis in human HL60 cells at 10 uM after 24 hrs by propidium iodide staining based flow cytometry (reference value: 3%); format: functional
[23] = Cell cycle arrest in human HL60 cells assessed as accumulation at G2/M phase at 5 uM after 24 hrs by propidium iodide staining based flow cytometry (reference value: 6%); format: functional; conditions: HL-60
[24] = system: HL-60; assay: Induction of apoptosis in human HL60 cells assessed as down regulation of Bcl-2 after 24 hrs by Western blot; format: functional, cell-based
[25] = Cell cycle arrest in human HL60 cells assessed as accumulation at S phase at 10 uM after 24 hrs by propidium iodide staining based flow cytometry (reference value: 48%); format: functional; conditions: HL-60
[26] = system: HL-60; assay: Induction of apoptosis in human HL60 cells at 5 uM after 24 hrs by propidium iodide staining based flow cytometry (reference value: 3%); format: functional
[27] = Cell cycle arrest in human HL60 cells assessed as accumulation at G2/M phase at 20 uM after 24 hrs by propidium iodide staining based flow cytometry (reference value: 6%); format: functional; conditions: HL-60
[28] = system: HL-60; assay: Induction of apoptosis in human HL60 cells assessed as activation of procaspase- 9 at 5 to 20 uM after 24 hrs by Western blot; format: functional, cell-based
[29] = system: HL-60; assay: Induction of apoptosis in human HL60 cells assessed as up regulation of Bax after 24 hrs by Western blot; format: functional, cell-based
[30] = Cell cycle arrest in human HL60 cells assessed as accumulation at G2/M phase at 10 uM after 24 hrs by propidium iodide staining based flow cytometry (reference value: 6%); format: functional; conditions: HL-60
[31] = system: HL-60; assay: Induction of mitochondrial potential loss in human HL60 cells after 24 hrs by rhodamine-123 staining based flow cytometry (reference value: 3%); format: functional, cell-based
[32] = Cell cycle arrest in human HL60 cells assessed as accumulation at S phase at 20 uM after 24 hrs by propidium iodide staining based flow cytometry (reference value: 48%); format: functional; conditions: HL-60
[33] = Cell cycle arrest in human HL60 cells assessed as accumulation at G1 phase at 10 uM after 24 hrs by propidium iodide staining based flow cytometry (reference value: 46%); format: functional; conditions: HL-60

## C=C(C)[C@@H]1CC[C@]2(C(=O)OCc3cn(-c4ccc5cc(OC)ccc5c4)nn3)CC[C@]3(C)[C@H](CC[C@@H]4[C@@]5(C)CC[C@H](O)C(C)(C)[C@@H]5CC[C@]43C)[C@@H]12
[1]
  inhibition of growth at 10 µM: 12%
[2]
  IC50: > 100 µM
[3]
  inhibition of growth at 10 µM: 22%
[4]
  IC50: > 100 µM
[5]
  IC50: 31 µM
[6]
  inhibition of growth at 10 µM: 33%
[7]
  inhibition of growth at 10 µM: 35%
[8]
  IC50: 29 µM

## C=C(C)[C@@H]1CC[C@]2(C(=O)OCc3cn(-c4ccc(C#N)cc4)nn3)CC[C@]3(C)[C@H](CC[C@@H]4[C@@]5(C)CC[C@H](O)C(C)(C)[C@@H]5CC[C@]43C)[C@@H]12
[1]
  inhibition of growth at 10 µM: 57%
[2]
  IC50: 8 µM
[3]
  inhibition of growth at 10 µM: 63%
[4]
  IC50: 7 µM
[5]
  IC50: 12 µM
[6]
  inhibition of growth at 10 µM: 46%
[7]
  inhibition of growth at 10 µM: 55%
[8]
  IC50: 8 µM

## C=C(C)[C@@H]1CC[C@]2(C(=O)OCc3cn(-c4ccccc4OC)nn3)CC[C@]3(C)[C@H](CC[C@@H]4[C@@]5(C)CC[C@H](O)C(C)(C)[C@@H]5CC[C@]43C)[C@@H]12
[1]
  inhibition of growth at 10 µM: 50%
[2]
  IC50: 9 µM
[3]
  inhibition of growth at 10 µM: 12%
[4]
  IC50: > 100 µM
[5]
  IC50: > 100 µM
[6]
  inhibition of growth at 10 µM: 3%
[7]
  inhibition of growth at 10 µM: 34%
[8]
  IC50: 29 µM

## C=C(C)[C@@H]1CC[C@]2(C(=O)OCc3cn(-c4ccc(F)cc4)nn3)CC[C@]3(C)[C@H](CC[C@@H]4[C@@]5(C)CC[C@H](O)C(C)(C)[C@@H]5CC[C@]43C)[C@@H]12
[9]
  Activity: 18%
[10]
  Activity: Active
[11]
  Activity: Active
[12]
  Activity: 27%
[1]
  inhibition of growth at 10 µM: 75%
[2]
  IC50: 5 µM
[13]
  Activity: Active
[3]
  inhibition of growth at 10 µM: 63%
[14]
  Activity: 14%
[15]
  Activity: Active
[16]
  Activity: Active
[17]
  Activity: 47%
[4]
  IC50: 7 µM
[18]
  Activity: Active
[19]
  Activity: 48%
[20]
  Activity: 90%
[21]
  Activity: 7%
[22]
  Activity: 7%
[5]
  IC50: 7 µM
[23]
  Activity: 5%
[6]
  inhibition of growth at 10 µM: 62%
[24]
  Activity: Dose-dependent effect
[7]
  inhibition of growth at 10 µM: 69%
[25]
  Activity: 44%
[26]
  Activity: 5%
[27]
  Activity: 1%
[8]
  IC50: 7 µM
[28]
  Activity: Active
[29]
  Activity: Active
[30]
  Activity: 3%
[31]
  Activity: Dose-dependent effect
[32]
  Activity: 9%
[33]
  Activity: 53%

## C=C(C)[C@@H]1CC[C@]2(C(=O)OCc3cn(-c4cccnc4Cl)nn3)CC[C@]3(C)[C@H](CC[C@@H]4[C@@]5(C)CC[C@H](O)C(C)(C)[C@@H]5CC[C@]43C)[C@@H]12
[1]
  inhibition of growth at 10 µM: 55%
[2]
  IC50: 8 µM
[3]
  inhibition of growth at 10 µM: 40%
[4]
  IC50: 50 µM
[5]
  IC50: 69 µM
[6]
  inhibition of growth at 10 µM: 30%
[7]
  inhibition of growth at 10 µM: 46%
[8]
  IC50: 18 µM

## C=C(C)[C@@H]1CC[C@]2(C(=O)OCc3cn(-c4cccc(OC)c4)nn3)CC[C@]3(C)[C@H](CC[C@@H]4[C@@]5(C)CC[C@H](O)C(C)(C)[C@@H]5CC[C@]43C)[C@@H]12
[1]
  inhibition of growth at 10 µM: 28%
[2]
  IC50: 22 µM
[3]
  inhibition of growth at 10 µM: 10%
[4]
  IC50: 25 µM
[5]
  IC50: 25 µM
[6]
  inhibition of growth at 10 µM: 10%
[7]
  inhibition of growth at 10 µM: 5%
[8]
  IC50: 25 µM

## C=C(C)[C@@H]1CC[C@]2(C(=O)OCc3cn(-c4ccc5c(c4)OCO5)nn3)CC[C@]3(C)[C@H](CC[C@@H]4[C@@]5(C)CC[C@H](O)C(C)(C)[C@@H]5CC[C@]43C)[C@@H]12
[1]
  inhibition of growth at 10 µM: 56%
[2]
  IC50: 8 µM
[3]
  inhibition of growth at 10 µM: 53%
[4]
  IC50: 8 µM
[5]
  IC50: 9 µM
[6]
  inhibition of growth at 10 µM: 49%
[7]
  inhibition of growth at 10 µM: 53%
[8]
  IC50: 8 µM

## C=C(C)[C@@H]1CC[C@]2(C(=O)O)CC[C@]3(C)[C@H](CC[C@@H]4[C@@]5(C)CC[C@H](O)C(C)(C)[C@@H]5CC[C@]43C)[C@@H]12 [BETULINIC ACID]
[1]
  inhibition of growth at 10 µM: 70%
[2]
  IC50: 7 µM
[3]
  inhibition of growth at 10 µM: 68%
[4]
  IC50: 8 µM
[5]
  IC50: 7 µM
[6]
  inhibition of growth at 10 µM: 70%
[7]
  inhibition of growth at 10 µM: 69%
[8]
  IC50: 8 µM

## C=C(C)[C@@H]1CC[C@]2(C(=O)OCc3cn(-c4ccc(Br)cc4)nn3)CC[C@]3(C)[C@H](CC[C@@H]4[C@@]5(C)CC[C@H](O)C(C)(C)[C@@H]5CC[C@]43C)[C@@H]12
[1]
  inhibition of growth at 10 µM: 61%
[2]
  IC50: 7 µM
[3]
  inhibition of growth at 10 µM: 54%
[4]
  IC50: 8 µM
[5]
  IC50: 25 µM
[6]
  inhibition of growth at 10 µM: 45%
[7]
  inhibition of growth at 10 µM: 39%
[8]
  IC50: 25 µM
